# Assay results published in patent US20240262826A1, “WILD TYPE KIT INHIBITORS” (Blueprint Medicines Corporation, priority 2022, published 2024).
# Tests used:
# wild type c-kit = wild type c-kit (Homo sapiens (Human), UniProt P10721); assay: PathScan phospho c-kit (Tyr719) sandwich ELISA in SCF-stimulated M-07e cells (pKIT assay); type: cell-based; conditions: ELISA assay (values not marked *)
# Procedure, shortened: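 Serum- and GM-CSF-starved M-07e cells (4 h) pretreated 60 min at 37 °C with an 8-point compound series in duplicate (0.25% DMSO), then stimulated with human SCF (500 ng/mL stock) 10 min at room temperature. Lysate c-kit Tyr719 phosphorylation quantified by sandwich ELISA with TMB read-out; IC50 from 4-parameter logistic fit.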
# [1] = biological target: human P-glycoprotein (P-gp, MDR1) (Homo sapiens (Human), UniProt P08183); assay: MDCK-MDR1 cell monolayer drug transport assay (P-gp efflux ratio); type: in vitro ADME; conditions: pH 7.4, MDCK-MDR1 cells; for efflux ratio at 2 h, 1 µM: 1 uM concentration of compound, read-out: Pgp Efflux Ratio, 1 uM
# Procedure, shortened: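 P-gp substrate potential tested in MDCK-MDR1 monolayers on Transwell supports, cultured 4-8 days; monolayers with TEER <42 ohms·cm2 discarded. Transport run in HBSS (10 mM HEPES, pH 7.4) at 37° C with compound working solution at 1 μM.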
# Sequence of human P-glycoprotein (P-gp, MDR1) (P08183 whole entry): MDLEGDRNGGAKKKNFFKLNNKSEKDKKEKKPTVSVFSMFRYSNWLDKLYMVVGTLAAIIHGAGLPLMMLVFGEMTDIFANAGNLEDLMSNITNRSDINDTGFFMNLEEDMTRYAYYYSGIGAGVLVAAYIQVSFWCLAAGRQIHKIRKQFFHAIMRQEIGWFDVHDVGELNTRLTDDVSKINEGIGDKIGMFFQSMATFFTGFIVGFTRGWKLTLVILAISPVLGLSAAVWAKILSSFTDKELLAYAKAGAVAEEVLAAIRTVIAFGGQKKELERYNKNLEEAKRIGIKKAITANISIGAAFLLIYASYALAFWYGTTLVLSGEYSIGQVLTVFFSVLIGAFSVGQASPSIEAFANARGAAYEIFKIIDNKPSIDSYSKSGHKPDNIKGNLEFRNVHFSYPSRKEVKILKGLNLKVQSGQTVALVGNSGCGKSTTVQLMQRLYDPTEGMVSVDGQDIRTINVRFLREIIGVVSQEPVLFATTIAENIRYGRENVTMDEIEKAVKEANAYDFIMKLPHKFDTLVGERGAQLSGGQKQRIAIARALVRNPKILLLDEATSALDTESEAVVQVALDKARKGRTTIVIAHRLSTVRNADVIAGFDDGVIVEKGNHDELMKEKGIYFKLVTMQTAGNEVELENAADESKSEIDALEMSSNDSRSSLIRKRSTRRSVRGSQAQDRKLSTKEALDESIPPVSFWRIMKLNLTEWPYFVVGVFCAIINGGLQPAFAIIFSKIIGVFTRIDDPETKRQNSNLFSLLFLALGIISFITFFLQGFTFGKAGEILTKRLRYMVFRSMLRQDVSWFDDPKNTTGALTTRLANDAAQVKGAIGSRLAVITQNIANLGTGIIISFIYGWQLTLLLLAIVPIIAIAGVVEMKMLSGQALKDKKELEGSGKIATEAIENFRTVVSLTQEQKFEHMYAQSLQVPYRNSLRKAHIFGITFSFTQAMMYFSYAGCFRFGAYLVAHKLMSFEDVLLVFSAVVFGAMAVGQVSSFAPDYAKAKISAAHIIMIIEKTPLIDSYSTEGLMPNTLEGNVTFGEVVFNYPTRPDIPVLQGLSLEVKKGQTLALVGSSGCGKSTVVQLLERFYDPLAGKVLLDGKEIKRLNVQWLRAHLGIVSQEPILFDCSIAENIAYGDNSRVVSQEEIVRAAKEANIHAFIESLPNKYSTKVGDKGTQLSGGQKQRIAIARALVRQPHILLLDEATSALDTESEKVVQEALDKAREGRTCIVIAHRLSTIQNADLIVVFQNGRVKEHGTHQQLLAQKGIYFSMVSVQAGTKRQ
# Sequence of wild type c-kit (P10721 26-976): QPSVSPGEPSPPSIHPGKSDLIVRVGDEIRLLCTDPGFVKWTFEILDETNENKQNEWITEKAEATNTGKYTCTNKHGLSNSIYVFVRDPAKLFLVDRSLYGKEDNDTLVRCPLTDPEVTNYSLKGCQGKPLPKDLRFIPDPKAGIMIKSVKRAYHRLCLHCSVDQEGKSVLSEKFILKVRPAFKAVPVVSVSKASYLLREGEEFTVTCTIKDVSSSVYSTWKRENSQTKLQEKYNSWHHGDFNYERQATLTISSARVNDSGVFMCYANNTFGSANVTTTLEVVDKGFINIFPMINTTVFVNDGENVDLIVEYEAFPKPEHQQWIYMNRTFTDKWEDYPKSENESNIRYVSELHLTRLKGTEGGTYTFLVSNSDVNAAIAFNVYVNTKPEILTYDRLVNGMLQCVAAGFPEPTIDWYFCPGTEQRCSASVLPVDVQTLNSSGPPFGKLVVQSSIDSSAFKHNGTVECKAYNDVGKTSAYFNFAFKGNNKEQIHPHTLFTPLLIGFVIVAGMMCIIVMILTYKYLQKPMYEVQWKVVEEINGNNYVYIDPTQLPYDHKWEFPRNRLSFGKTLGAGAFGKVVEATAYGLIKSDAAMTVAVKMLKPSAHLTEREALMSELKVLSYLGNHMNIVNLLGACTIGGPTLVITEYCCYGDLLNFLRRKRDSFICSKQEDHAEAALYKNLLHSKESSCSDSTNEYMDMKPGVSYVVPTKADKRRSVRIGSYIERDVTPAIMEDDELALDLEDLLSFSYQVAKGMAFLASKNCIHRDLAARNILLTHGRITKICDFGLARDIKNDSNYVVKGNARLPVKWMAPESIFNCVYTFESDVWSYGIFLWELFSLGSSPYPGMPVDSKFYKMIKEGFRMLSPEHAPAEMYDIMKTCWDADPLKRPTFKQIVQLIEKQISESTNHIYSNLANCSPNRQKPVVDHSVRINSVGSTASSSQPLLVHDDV
Structure (SMILES),IC50 (wild type c-kit) [nM],"efflux ratio at 2 h, 1 µM [1]","efflux ratio at 2 h, 0.1 µM ([1]; 0.1 uM concentration of compound (denoted by **), read-out: Pgp Efflux Ratio)"
"Cc1ccc(-c2nnn(C)n2)cc1NC(=O)c1cnn2ccc(-c3cnn(C[C@H](C)O)c3)cc12 (single isomer, unassigned) [Example 54, (S)-5-(1-(2-hydroxypropyl)-1H-pyrazol-4-yl)-N-(2-methyl-5-(2-methyl-2H-tetrazol-5-yl)phenyl)pyrazolo[1,5-a]pyridine-3-carboxamide or (R)-5-(1-(2-hydroxypropyl)-1H-pyrazol-4-yl)-N-(2-methyl-5-(2-methyl-2H-tetrazol-5-yl)phenyl)pyrazolo[1,5-a]pyridine-3-carboxamide]",1.4,8.4,
"COC(=O)N1CC(c2cnn(-c3ccc(C)c(NC(=O)c4cnn5ccc(N(C)CCO)cc45)c3)n2)C1 [Example 84, methyl 3-(2-(3-(5-((2-hydroxyethyl)(methyl)amino)pyrazolo[1,5-a]pyridine-3-carboxamido)-4-methylphenyl)-2H-1,2,3-triazol-4-yl)azetidine-1-carboxylate]",21.9,51.9,
"COC(=O)N1CC(n2nnc(-c3ccc(C)c(NC(=O)c4cnn5ccc(NCC(C)(C)O)cc45)c3)n2)C1 [Example 89, methyl 3-(5-(3-(5-((2-hydroxy-2-methylpropyl)amino)pyrazolo[1,5-a]pyridine-3-carboxamido)-4-methylphenyl)-2H-tetrazol-2-yl)azetidine-1-carboxylate]",71,43.1,
"Cc1cc(Cl)c(NC(=O)c2cnn3ccc(-c4cn(CC5(O)CCOCC5)nc4C)cc23)cc1-c1nnn(C2CC2)n1 [Example 235, N-(2-chloro-5-(2-cyclopropyl-2H-tetrazol-5-yl)-4-methylphenyl)-5-(1-((4-hydroxytetrahydro-2H-pyran-4-yl)methyl)-3-methyl-1H-pyrazol-4-yl)pyrazolo[1,5-a]pyridine-3-carboxamide]",1.6,3.9,
"COCCNc1ccn2ncc(C(=O)Nc3cc(-c4nnn(C5CN(C(=O)OC)C5)n4)c(F)cc3C)c2c1 [Example 114, methyl 3-(5-(2-fluoro-5-(5-((2-methoxyethyl)amino)pyrazolo[1,5-a]pyridine-3-carboxamido)-4-methylphenyl)-2H-tetrazol-2-yl)azetidine-1-carboxylate]",31.3,14.6,
"Cc1cc(Cl)c(-c2nnn(C3CC(F)(F)C3)n2)cc1NC(=O)c1cnn2ccc(N3CCOCC3)cc12 [Example 168, N-(4-chloro-5-(2-(3,3-difluorocyclobutyl)-2H-tetrazol-5-yl)-2-methylphenyl)-5-morpholinopyrazolo[1,5-a]pyridine-3-carboxamide]",9.2,3.2,
"Cc1nn(CC(C)(C)O)cc1-c1ccn2ncc(C(=O)Nc3cc(-c4nnn(C5CC5)n4)c(F)cc3Cl)c2c1 [Example 251, N-(2-chloro-5-(2-cyclopropyl-2H-tetrazol-5-yl)-4-fluorophenyl)-5-(1-(2-hydroxy-2-methylpropyl)-3-methyl-1H-pyrazol-4-yl)pyrazolo[1,5-a]pyridine-3-carboxamide]",0.4,,1.8
"COC(=O)N1CC(n2nnc(-c3ccc(C)c(NC(=O)c4cnn5ccc(NCCOC(C)(C)C)cc45)c3)n2)C1 [Example 93, methyl 3-(5-(3-(5-((2-(tert-butoxy)ethyl)amino)pyrazolo[1,5-a]pyridine-3-carboxamido)-4-methylphenyl)-2H-tetrazol-2-yl)azetidine-1-carboxylate]",29,11.4,
"Cc1ccc(-n2nnc(C3CC3)n2)cc1NC(=O)c1cnn2ccc(-c3cnn(CCO)c3)cc12 [Example 52, N-(5-(5-cyclopropyl-2H-tetrazol-2-yl)-2-methylphenyl)-5-(1-(2-hydroxyethyl)-1H-pyrazol-4-yl)pyrazolo[1,5-a]pyridine-3-carboxamide]",0.7,5.9,
"Cc1ccc(-n2nnc(C3CC3)n2)cc1NC(=O)c1cnn2cc(-c3cnn(CC4(O)CCOCC4)c3)cc(F)c12 [Example 277, N-(5-(5-cyclopropyl-2H-tetrazol-2-yl)-2-methylphenyl)-4-fluoro-6-(1-((4-hydroxytetrahydro-2H-pyran-4-yl)methyl)-1H-pyrazol-4-yl)pyrazolo[1,5-a]pyridine-3-carboxamide]",0.5,3,
"Cc1cc(F)c(-c2nnn([C@H]3C[C@@H](C(F)(F)F)C3)n2)cc1NC(=O)c1cnn2ccc(N3CCC(C)(O)CC3)cc12 [Example 109, N-(4-fluoro-2-methyl-5-(2-((1s,3s)-3-(trifluoromethyl)cyclobutyl)-2H-tetrazol-5-yl)phenyl)-5-(4-hydroxy-4-methylpiperidin-1-yl)pyrazolo[1,5-a]pyridine-3-carboxamide]",4.9,15.4,
"COC(=O)N1CC(c2cnn(-c3ccc(C)c(NC(=O)c4cnn5ccc(N6CCOCC6)cc45)c3)n2)C1 [Example 80, methyl 3-(2-(4-methyl-3-(5-morpholinopyrazolo[1,5-a]pyridine-3-carboxamido)phenyl)-2H-1,2,3-triazol-4-yl)azetidine-1-carboxylate]",9.2,4,
"Cc1ccc(-n2nnc([C@@H]3CC3(F)F)n2)cc1NC(=O)c1cnn2ccc(-c3cnn(CCO)c3)cc12 (single isomer, unassigned) [Example 233, (S)-N-(5-(5-(2,2-difluorocyclopropyl)-2H-tetrazol-2-yl)-2-methylphenyl)-5-(1-(2-hydroxyethyl)-1H-pyrazol-4-yl)pyrazolo[1,5-a]pyridine-3-carboxamide or (R)-N-(5-(5-(2,2-difluorocyclopropyl)-2H-tetrazol-2-yl)-2-methylphenyl)-5-(1-(2-hydroxyethyl)-1H-pyrazol-4-yl)pyrazolo[1,5-a]pyridine-3-carboxamide]",2.2,6.3,
"COCCS(=O)(=O)N1CC(n2nnc(-c3ccc(C)c(NC(=O)c4cnn5ccccc45)c3)n2)C1 [Example 178, N-(5-(2-(1-((2-methoxyethyl)sulfonyl)azetidin-3-yl)-2H-tetrazol-5-yl)-2-methylphenyl)pyrazolo[1,5-a]pyridine-3-carboxamide]",17.6,4.7,
"Cc1ccc(-c2nnn([C@H]3C[C@@H](C(F)(F)F)C3)n2)cc1NC(=O)c1cnn2ccc(NCCO)cc12 [Example 120, 5-((2-hydroxyethyl)amino)-N-(2-methyl-5-(2-((1s,3s)-3-(trifluoromethyl)cyclobutyl)-2H-tetrazol-5-yl)phenyl)pyrazolo[1,5-a]pyridine-3-carboxamide or 5-((2-hydroxyethyl)amino)-N-(2-methyl-5-(2-((1r,3r)-3-(trifluoromethyl)cyclobutyl)-2H-tetrazol-5-yl)phenyl)pyrazolo[1,5-a]pyridine-3-carboxamide]",4.1,35.9,
"COC(=O)N1CC(n2nnc(-c3ccc(C)c(NC(=O)c4cnn5ccc(N6CC7(COC7)C6)cc45)c3)n2)C1 [Example 98, methyl 3-(5-(3-(5-(2-oxa-6-azaspiro[3.3]heptan-6-yl)pyrazolo[1,5-a]pyridine-3-carboxamido)-4-methylphenyl)-2H-tetrazol-2-yl)azetidine-1-carboxylate]",47.8,15.5,
"Cc1nn(CC2(O)CCOCC2)cc1-c1ccn2ncc(C(=O)Nc3cc(-n4nnc([C@H]5C[C@@H]5F)n4)ccc3Cl)c2c1 (single isomer, unassigned) [Example 272, N-(2-chloro-5-(5-((1R,2S)-2-fluorocyclopropyl)-2H-tetrazol-2-yl)phenyl)-5-(1-((4-hydroxytetrahydro-2H-pyran-4-yl)methyl)-3-methyl-1H-pyrazol-4-yl)pyrazolo[1,5-a]pyridine-3-carboxamide or N-(2-chloro-5-(5-((1S,2R)-2-fluorocyclopropyl)-2H-tetrazol-2-yl)phenyl)-5-(1-((4-hydroxytetrahydro-2H-pyran-4-yl)methyl)-3-methyl-1H-pyrazol-4-yl)pyrazolo[1,5-a]pyridine-3-carboxamide]",0.9,7,
